Key:
YAP-TEAD = YAP-TEAD inhibitor activity by Nano luciferase method (8xGTiiC-nLuc reporter in 293T cells); type: cell-based; conditions: Homo sapiens, HEK-293T, 48 hours incubation, read-out: Nano-luciferase detection (IC50)
Excerpt: EXAMPLE 2: YAP-TEAD INHIBITOR ACTIVITY WAS DETECTED BY NANO LUCIFERASE METHOD
(1) Experimental materials and equipments: 293T cells were purchased from NANJING COBIOER BIOSCIENCES CO., LTD. DMEM medium (High sugar, no phenol red, Bio-Channel), DMSO (dimethyl sulfoxide), Lipo6000™ transfection reagent (Beyotime), pGL3B-8xGTiiC-nLuc-CMV-fLuc plasmid, 0.25% EDTA-Tripsin (trypsin digest), 1×PBS (phosphate buffer, PH7.2), 96-well white cell culture plate (PerkinElmer), fetal bovine serum (FBS), 10,000 U/mL penicillin-G/streptomycin, high-speed freezing centrifuge (EPPENDORF 5810R), 37° C. CO2 incubator, Vi-cell® Cell Counter, Envision Microplate Reader (PerkinElmer).
The revived 293T cells were inoculated into a 10 cm culture dish and placed in an incubator with 5% CO2, and cultured at constant temperature of 37° C. To ensure transfection efficiency, cells at logarithmic phase (cell density of approximately 50%-70%) should be used.
On the day before transfection, cells at the logarithmic phase were digested with Trypsin-EDTA, and culture medium was added to terminate digestion. The cell suspension was prepared by blowing and mixing using a pipette.
Cell concentration was measured using Vi-cell, and the cell suspension was diluted to a suspension of 5*10^^5 cells per milliliter. After preparing the cell suspension, the suspension was gently mixed. 10 ml of liquid was added to a 10 cm culture dish. In this way, the number of cells in each 10 cm culture dish was 5*10^^6. The cells were incubated at a constant temperature of 37° C. for 1 day in an incubator with 5% CO2.
Two clean and sterile centrifuge tubes were taken and added with 750 μL opti-MEM Medium without antibiotics and serum, respectively. Then one tube was added with 15 μg Plasmid (pGL3B-8xGTiiC-nLuc-CMV-fLuc), and gently blew and mixed well using a pipette; the other tube was added with Lipo6000 transfection reagent, and gently blew and mixed using a pipette. After standing at room temperature for 5 minutes, the culture solution containing DNA was added gently to the culture solution containing Lipo6000 transfection reagent, and mixed well by gently inverting the centrifuge tube, then standing at room temperature for 5 minutes.
The above mixture was added evenly to a 10 cm culture dish and replaced with fresh complete culture medium after 6 hours of cultivation.
After transfection for 1 day, cells were digested with Trypsin EDTA, and culture medium was added to terminate the digestion. The cell suspension was prepared by blowing and mixing using a pipette.
Cell concentration was measured using Vi-cell, and the cell suspension was diluted to a suspension of 20000 cells per milliliter.
After preparing the cell suspension, the suspension was gently mixed, and added to 96-well plate with 100 μL per well. Thus, the density of the cells to be tested is 2000 cells per well.
The inoculated cell culture plate was placed in the incubator for cultivation, and after about 24 hour, compounds with concentration gradient were added.
10 mM compound stock solution was diluted with culture medium to 50 μM. Compound solution of 50 μM was added to the third column of the deep well plate, 216 μL of culture medium containing 0.5% DMSO was added to the fourth to eleventh columns, successively.
Gradient dilution: taking 100 μL of solution from the third column and adding the solution to the fourth column and mixing well; then taking 100 µL of solution from the fourth column again and adding the solution to the fifth column, repeating this operation until the eleventh column.
Taking 25 μL of compound solution from the deep well plate and adding it to a 96-well culture plate using a multi-channel pipette. Repeating four times on the 96 well plate for each compound. Finally, a concentration gradient of 1:3.16 was formed in the 96-well plate with a maximum concentration of 10,000 nM. The • (5) Addition of Nano Luciferase Detection Reagent and Read […]

[1] = tested on: human pleural mesothelioma cells NCI-H226; test: Cell anti-proliferation experiment (CCK8), NCI-H226; type: cell-based
Excerpt: TEST EXAMPLE 1 CELL ANTI-PROLIFERATION EXPERIMENT
Determination of proliferation inhibition of YAP-TEAD inhibitor compounds on human pleural mesothelioma cells NCI-H226
Experimental materials and equipments: Human pleural mesothelioma cells NCI-H226 was purchased from NANJING COBIOER BIOSCIENCES CO., LTD. RPMI-1640 medium (Bio-Channel), DMSO (dimethyl sulfoxide), CCK8 (WST-8) Cell Assay Kit (Beyotime), 0.25% EDTA-Tripsin (trypsin digest), 1×PBS (phosphate buffer, PH7.2), 96-well plate (Corning), fetal bovine serum (FBS), 10,000 U/mL penicillin-G/streptomycin, high-speed freezing centrifuge (EPPENDORF 5810R), enzyme-linked immunosorbent assay (Tecan Spark).
1. Cell plating • A) Tumor cells were cultured to 80-90% density in RPMI-1640 (containing 10% FBS and 100 U/mL penicillin-G/streptomycin) under the condition of 37° C., 5% CO2 and saturated humidity. • B) The culture medium was removed from the 10 cm culture dish. • C) Cells were washed with 10 ml 1×PBS. • D) 4 ml of 0.25% EDTA-Tripsin was added to digest pancreatin for 5 minutes in an incubator at 37° C. and 5% CO2. Then the mixture was transferred to a 15 ml centrifuge tube, and centrifuged for 5 minutes at 200 g. The supernatant was discarded to obtain cell precipitation. • E) The cell precipitation was resuspended with 4 ml of […], counted and adjusted to 10,000 cells/ml. • F) The cell suspension was added to a 96-well plate with a volume of 100 μL per well and cultured overnight in an incubator at 37° C. and 5% CO2.
• Compound dilution • A) Preparation of gradient dilution solutions of the tested compounds: the tested compounds was configured to 1 mM stock solution. Then […] of stock solution was dissolved in 1.5 ml of DMSO-free culture solution, and then 3-fold continuous gradient dilution with 0.1% DMSO culture solution was performed to get a total of 9 concentrations. The diluted concentrations of the compound were as follows: 333.33 nM, 111.11 nM, 37.03 nM, 12.35 nM, 4.15 nM, 1.37 nM, 0.46 nM, 0.15 nM • B) After full mixing, 100 μL of culture compound solution was taken to replace the culture solution in the cell culture plate, with 4 duplicated wells at each concentration; • C) The cells were transferred to the incubator to incubate for 3 days.
• A) the cell culture plate was taken out and added with 10 μl of CCK-8 (WST-8) solution per well in the biosafety cabinet; • B) The cell culture plate was put back into the incubator and continued to incubate for 3 hours; • C) 450 nm wavelength was selected to measure absorbance value on TECAN enzyme linked immunosorbent assay detector.
The following formula was used to calculate the cell viability (% Cell Viability); • Cell Viability (%)=[A(Drug-added)-A(Blank)]/[A(0 Drug-added)-A(blank)][…] • A (Drug-added): The absorbance of wells containing cells, CCK8 solution, and drug solution. • A (Blank): The absorbance of wells containing culture medium and CCK8 solution, but without cells. • A (0 Drug-added): The absorbance of wells containing cells, CCK8 solution, but without drug solution. • Cell viability: Cell proliferation viability or cytotoxicity viability was determined by the IC50 value obtained by curve fitting using GraphPad Prism 8 software.

Compound | IC50 (YAP-TEAD) | IC50 [1]
CNS(=O)(=O)c1ccc2c(c1)c1nn(C)cc1c(=O)n2-c1cccc(C)c1 [Example T-79] | ≤ 1 µM | 1 to 5 µM
Cc1cc(=O)n(-c2ccc(C(F)(F)F)cc2)c2ncc(C(=O)N[C@@H](C)c3cccc(N)n3)cc12 [Example T-457] | ≤ 1 µM | ≤ 1 µM
C[C@H](NC(=O)c1ccc2c(n1)c1ccccc1c(=O)n2-c1ccc(C(F)(F)F)cc1)c1ccccn1 [Example T-403] | ≤ 1 µM | ≤ 1 µM
C[C@H](NC(=O)c1ccc2c(c1)c1c(c(=O)n2C2CCC(F)(F)CC2)CCCC1)c1ccccn1 [Example T-267] | ≤ 1 µM | ≤ 1 µM
CCOC(=O)Nc1ccc2c(c1)c1nn(C)cc1c(=O)n2-c1ccc(C(F)(F)F)cc1 [Example T-193] | ≤ 1 µM | ≤ 1 µM
CS(=O)(=O)Nc1ccc2c(c1)c1c(c(=O)n2-c2ccc(C(F)(F)F)cc2)CCC1 [Example T-432] | ≤ 1 µM | ≤ 1 µM
CN(C)Cc1cccc(NC(=O)c2ccc3c(c2)c2nn(C)cc2c(=O)n3-c2ccc(C(F)(F)F)cc2)c1 [Example T-115] | 1 to 5 µM | 1 to 5 µM
C[C@H](NC(=O)c1cnc2c(c1)c1cscc1c(=O)n2-c1ccc(C(F)(F)F)cc1)c1cccc(N)n1 [Example T-454] | ≤ 1 µM | ≤ 1 µM
Cn1cc2c(=O)n(-c3ccc(C(F)(F)F)cc3)c3ccc(C(=O)N[C@@H](c4ccccc4)c4ccccn4)cc3c2n1 [Example T-142] | 1 to 5 µM | 1 to 5 µM
Cn1cc2c(=O)n(-c3ccc(C(F)(F)F)cc3)c3ccc(NC(N)=O)cc3c2n1 [Example T-183] | ≤ 1 µM | ≤ 1 µM
C=CC(=O)Nc1ccc2c(c1)c(C)cc(=O)n2-c1ccc(C(F)(F)F)cc1 [Example T-280] | ≤ 1 µM | ≤ 1 µM
CN(C)C/C=C/C(=O)Nc1ccc2c(c1)c1nn(C)cc1c(=O)n2-c1ccc(C(F)(F)F)cc1 [Example T-176] | ≤ 1 µM | ≤ 1 µM
CC(C)NC(=O)c1ccc2c(c1)c(=O)ccn2-c1ccc(C(F)(F)F)cc1 [Example T-6] | ≤ 1 µM | ≤ 1 µM
C[C@H](NC(=O)c1ccc2c(c1)c1cocc1c(=O)n2-c1ccc(C(F)(F)F)cc1)c1ccccn1 [Example T-286] | ≤ 1 µM | ≤ 1 µM
C[C@H](NC(=O)c1ccc2c(c1)c1ncccc1c(=O)n2-c1ccc(C(F)(F)F)cc1)c1ccccn1 [Example T-252] | ≤ 1 µM | ≤ 1 µM
CNc1cccc([C@H](C)NC(=O)c2ccc3c(c2)c2nn(C)cc2c(=O)n3-c2ccc(C(F)(F)F)cc2)n1 [Example T-149] | ≤ 1 µM | ≤ 1 µM

Compound | IC50 (YAP-TEAD) | IC50 [1]
C[C@H](NC(=O)c1cnc2c(c1)c1cnccc1c(=O)n2-c1ccc(C(F)(F)F)cc1)c1ccccn1 [Example T-406] | ≤ 1 µM | ≤ 1 µM
COc1cccc([C@H](C)NC(=O)c2ccc3c(c2)c2nn(C)cc2c(=O)n3-c2ccc(C(F)(F)F)cc2)n1 [Example T-134] | ≤ 1 µM | ≤ 1 µM
CNC[C@H](C)NC(=O)c1ccc2c(c1)c1nn(C)cc1c(=O)n2-c1ccc(C(F)(F)F)cc1 [Example T-120] | 1 to 5 µM | 1 to 5 µM
CNS(=O)(=O)c1ccc2c(c1)c1ncn(C)c1c(=O)n2-c1cccc(C(F)(F)F)c1 [Example T-57] | ≤ 1 µM | ≤ 1 µM
C[C@H](NC(=O)c1ccc2c(c1)c1ncsc1c(=O)n2-c1ccc(C(F)(F)F)cc1)c1ccccn1 [Example T-330] | ≤ 1 µM | ≤ 1 µM
C[C@H](NC(=O)c1ccc2c(c1)c1c(c(=O)n2-c2ccc(C(F)(F)F)cc2)CCCC1(F)F)c1ccccn1 [Example T-306] | ≤ 1 µM | ≤ 1 µM
C[C@H](NC(=O)c1ccc2c(c1)c1c(c(=O)n2-c2ccc(C(F)(F)F)nc2)CCC1)c1ccccn1 [Example T-262] | ≤ 1 µM | ≤ 1 µM
Cc1cc2cc(C(=O)N[C@@H](C)c3cccc(N)n3)ccc2n(-c2ccc(C(F)(F)F)cc2)c1=O [Example T-414] | ≤ 1 µM | ≤ 1 µM
C[C@H](NS(=O)(=O)c1ccc2c(c1)c1nn(C)cc1c(=O)n2-c1ccc(S(F)(F)(F)(F)F)cc1)c1ccccn1 [Example T-166] | 1 to 5 µM | 1 to 5 µM
C[C@H](NC(=O)c1cnc2c(c1)c1c(c(=O)n2-c2ccc(C(F)(F)F)cc2)CCC1)c1ccccn1 [Example T-245] | ≤ 1 µM | ≤ 1 µM
C[C@H](NC(=O)c1ccc2c(c1)c1nn(C)cc1c(=O)n2-c1ccc(S(F)(F)(F)(F)F)cc1)c1ccccn1 [Example T-227] | ≤ 1 µM | ≤ 1 µM
C[C@H](NC(=O)c1cnc2c(ccc(=O)n2-c2ccc(C(F)(F)F)cc2)c1)c1cccc(N)n1 [Example T-455] | ≤ 1 µM | ≤ 1 µM
C[C@H](NC(=O)c1ccc2c(c1)c1c(c(=O)n2-c2ccc(C(F)(F)F)nc2)CCCC1)c1ccccn1 [Example T-263] | ≤ 1 µM | ≤ 1 µM
CNS(=O)(=O)c1ccc2c(c1)c1nn(C)cc1c(=O)n2-c1ccc(F)cc1 [Example T-65] | ≤ 1 µM | ≤ 1 µM
Cc1c(-c2ccccc2)c(=O)n(-c2ccc(C(F)(F)F)cc2)c2ccc(C(=O)N[C@@H](C)c3ccccn3)cc12 [Example T-279] | 1 to 5 µM | ≤ 1 µM

Reference: patent US20250154105A1, “POLYCYCLIC COMPOUND AND USE THEREOF” (TYK MEDICINES, INC., priority 2021, published 2025)
